This note sets out measurements from patent publication EP4603105A1, “PHARMACEUTICAL COMPOSITION CONTAINING CYCLIC COMPOUND HAVING SELECTIVE KRAS INHIBITORY EFFECT AGAINST HRAS AND NRAS” (CHUGAI SEIYAKU KABUSHIKI KAISHA, priority 2022, dated 2024).

Test [1] deals with GDP-bound NRAS wild-type protein (Homo sapiens, UniProt P01111). The test can be described thus: Binding to NRAS by surface plasmon resonance (SPR), KD and KD ratio to KRAS. Summed up:
(§1)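 Recombinant RAS proteins bearing a biotinylated Avi tag and loaded with GDP served as the captured ligand, recaptured fresh every cycle. Binding responses were referenced to an uncoated surface and a buffer-only blank cycle. Dissociation constants were obtained by 1:1 model fitting at 30°C.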

Test [2] has as its system human lung cancer strain NCI-H441. Type of test: cell-based. Summed up:
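Signal came from […] measured per well once the reagent was added. Beforehand, cells were cultured at 37°C and 5% carbon dioxide on a compound series serially diluted in dimethyl sulfoxide.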

Another test concerns the target HRAS wild-type protein (Homo sapiens, UniProt P01112). The test can be described thus: Binding to HRAS by surface plasmon resonance (SPR), KD and KD ratio to KRAS. Summed up:
as §1
In general terms: SPR reads the build-up and loss of mass on a sensor chip optically.

In test [3] the target is GDP-bound KRAS wild-type protein (Homo sapiens, UniProt P01116). The experiment in a line: Binding to KRAS by surface plasmon resonance (SPR), dissociation constant KD. Summed up:
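Each cycle, GDP-bound biotin-Avi RAS was captured (~100–300 RU), compound concentrations were injected low to high for 75 s each at 100 µL/min, then the chip was regenerated. Buffer: HBS pH 7.4, 10 mM MgCl2, 10 µM GDP, 1 mM DTT, 4% DMSO; 30°C. KD from a 1:1 binding model.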

The mark [4] stands for this setting: ratio of the KD value with respect to GDP-bound NRAS wild-type protein to the KD value with respect to KRAS.
The mark [5] stands for this setting: ratio of the KD value with respect to HRAS wild-type protein to the KD value with respect to KRAS.
Where [6] appears, read: Single Cycle Kinetics, 1:1 binding model.
Where [7] appears, read: ratio of KD value for GDP-bound NRAS wild-type protein to KD value for KRAS (SPR).
The mark [8] stands for this setting: ratio of KD value for HRAS wild-type protein to KD value for KRAS (SPR).
[9] abbreviates: ratio of KD for GDP-bound NRAS wild-type protein to KD for KRAS.
Where [10] appears, read: ratio of KD for HRAS wild-type protein to KD for KRAS.

Where a SMILES comes first, the peptide text is derived from it. Bridges are numbered along the chain shown (N, C = ends). [ ]: non-standard residue; d: D form. The star is where a group is joined. hPhe(3-Cl-4-CF3) = N[C@@H](CCc1ccc(C(F)(F)F)c(Cl)c1)C(=O)O; NPrPhe(4-CF3) = CCCN[C@@H](Cc1ccc(C(F)(F)F)cc1)C(=O)O; NMeGly(cPent) = CN[C@H](C(=O)O)C1CCCC1; Pro(4,4-F2) = O=C(O)[C@@H]1CC(F)(F)CN1; NMeD = CN[C@@H](CC(=O)O)C(=O)O; NMeL = CN[C@@H](CC(C)C)C(=O)O; Morpholide = C1CN(*)CCO1; Aze = O=C(O)[C@@H]1CCN1; Ac4c = NC1(C(=O)O)CCC1; Sar = CNCC(=O)O

Sequence of GDP-bound KRAS wild-type protein (P01116 1-188 isoform P01116-2): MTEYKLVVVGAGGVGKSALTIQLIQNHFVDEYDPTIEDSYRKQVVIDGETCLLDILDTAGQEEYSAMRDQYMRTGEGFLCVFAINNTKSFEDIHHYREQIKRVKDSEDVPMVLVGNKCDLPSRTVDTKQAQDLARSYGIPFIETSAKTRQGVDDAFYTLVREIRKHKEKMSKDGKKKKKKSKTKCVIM
Sequence of HRAS wild-type protein (P01112 whole entry): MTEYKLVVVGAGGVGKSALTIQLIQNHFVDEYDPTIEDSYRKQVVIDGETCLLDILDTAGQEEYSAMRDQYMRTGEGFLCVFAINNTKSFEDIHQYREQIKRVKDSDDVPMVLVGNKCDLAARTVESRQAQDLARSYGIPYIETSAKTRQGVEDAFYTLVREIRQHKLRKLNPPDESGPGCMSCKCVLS
Sequence of GDP-bound NRAS wild-type protein (P01111 whole entry): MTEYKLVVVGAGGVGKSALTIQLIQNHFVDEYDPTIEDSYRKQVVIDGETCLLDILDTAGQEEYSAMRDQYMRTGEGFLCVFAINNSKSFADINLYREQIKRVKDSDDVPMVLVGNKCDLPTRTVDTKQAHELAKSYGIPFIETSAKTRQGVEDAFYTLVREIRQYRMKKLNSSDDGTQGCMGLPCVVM

What is called IC50 is the point on the concentration scale where inhibition reaches its midpoint. A lower IC50 goes with greater potency in that assay. For orientation: Kd means the concentration at which binding is half-saturated. A high value points to lower affinity. Regarding `CCO[C@@H]1C[C@H]2C(=O)NC3(CCC3)C(=O)N(C)[C@@H](C3CCCC3)C(=O)N(C)[C@H](C(=O)N(C)C)CC(=O)N(C)[C@@H](Cc3ccccc3)C(=O)N[C@@H]([C@@H](C)CC)C(=O)N(C)CC(=O)N(C)[C@H]3CCCCCN(C3=O)[C@@H](Cc3ccc(C(F)(F)F)cc3)C(=O)N(C)CC(=O)N[C@@H](CCc3cc(F)c(C(F)(F)F)c(F)c3)C(=O)N2C1` [PP0672], the “NRAS /KRAS” value in test [1] (setting [4]) is “B (a compound having 3 or more and less than 10 is denoted as B)”. In test [2], this compound registered an IC50 of 19.7 nM. Also, on HRAS wild-type protein (setting [5]), the “HRAS /KRAS” value was “B (a compound having 3 or more and less than 10 is denoted as B)”. The compound further had a Kd in test [3] (setting [6]) of 0.3 nM.
With `CC[C@H](C)[C@@H]1NC(=O)[C@H](CC2CC2)N(C)C(=O)C[C@@H](C(=O)N2CCCC2)N(C)C(=O)[C@H](C2CCCC2)N(C)C(=O)C2(CCCC2)NC(=O)[C@@H]2C[C@@H](C(F)(F)F)CN2C(=O)[C@H](CCc2cc(F)c(C(F)(F)F)c(F)c2)NC(=O)CN(C)C(=O)[C@H](Cc2ccc(F)cc2)N2CC/C=C\C[C@@H](C2=O)N(C)C(=O)CN(C)C1=O` [PP1509], the “NRAS /KRAS” value in test [1] (setting [7]) is “A (a compound having 10 or more and less than 20 is denoted as A)”. The IC50 in test [2] is 67.9 nM. For the same compound, on HRAS wild-type protein (setting [8]), the “HRAS /KRAS” value was “A (a compound having 10 or more and less than 20 is denoted as A)”. The compound further registered a Kd in test [3] (setting [6]) of 0.4 nM.
Consider `CCCN1C(=O)CN(C)C(=O)[C@@H]2CCN2C(=O)[C@H]([C@@H](C)CC)NC(=O)[C@H](CC(C)C)N(C)C(=O)C[C@@H](C(=O)N2CCOCC2)N(C)C(=O)[C@H](C2CCCC2)N(C)C(=O)C2(CCC2)NC(=O)[C@@H]2CC(F)(F)CN2C(=O)[C@H](CCc2ccc(C(F)(F)F)c(Cl)c2)NC(=O)CN(C)C(=O)[C@@H]1Cc1ccc(C(F)(F)F)cc1` [PP0404] ([NMeL]I[Aze][Sar][NPrPhe(4-CF3)][Sar][hPhe(3-Cl-4-CF3)][Pro(4,4-F2)][Ac4c][NMeGly(cPent)][NMeD]-Morpholide; lactam N-11), for which the “NRAS /KRAS” value in test [1] (setting [4]) was “B (a compound having 3 or more and less than 10 is denoted as B)”. Further, the IC50 in test [2] was determined as 21.7 nM. Moreover, the “HRAS /KRAS” value on HRAS wild-type protein (setting [5]) is “C (A compound having a KD ratio of 0.1 or more and less than 3 is denoted as C)”. This compound also displayed a Kd in test [3] (setting [6]) of 0.37 nM.
Consider `CCO[C@@H]1C[C@H]2C(=O)NC3(CC(C)(C)C3)C(=O)N(C)[C@@H](C3CCCC3)C(=O)N(C)[C@H](C(=O)N(C)CC)CC(=O)N(C)[C@@H]([C@@H](C)OC)C(=O)N[C@@H]([C@@H](C)CC)C(=O)N3CCC[C@H]3C(=O)N(C)[C@H]3C/C=C\CCN(C3=O)[C@@H](Cc3ccc(C)cc3)C(=O)N(C)CC(=O)N[C@@H](CCc3ccc(C(F)(F)F)c(OC)c3)C(=O)N2C1` [PP3188], for which the “NRAS /KRAS” value in test [1] (setting [9]) was “A (a compound having 10 or more and less than 20 is denoted as A)”. Besides, inhibition in test [2] was half-maximal at 64.7 nM (IC50). Also, at HRAS wild-type protein (setting [10]), the “HRAS /KRAS” value is “A (a compound having 10 or more and less than 20 is denoted as A)”. In test [3] (1:1 binding model), this compound returned a Kd of 0.99 nM.
For the compound `CCO[C@@H]1C[C@H]2C(=O)NC(C)(C)C(=O)N(C)[C@@H](C3CCCC3)C(=O)N(C)[C@H](C(=O)N(C)CC)CC(=O)N(C)[C@@H](CC(C)C)C(=O)N[C@@H]([C@@H](C)CC)C(=O)N(C)CC(=O)N(C)[C@H]3C/C=C\CCN(C3=O)[C@@H](Cc3ccc(C(F)(F)F)cc3)C(=O)N(C)CC(=O)N[C@@H](CCc3cc(F)c(C(F)(F)F)c(F)c3)C(=O)N2C1` [PP1937], the “NRAS /KRAS” value in test [1] (setting [4]) was “A (a compound having 10 or more and less than 20 is denoted as A)”. This compound also yielded a concentration for half-maximal inhibition (IC50) in test [2] of 6.8 nM. On HRAS wild-type protein (setting [5]), the “HRAS /KRAS” value is “A (a compound having 10 or more and less than 20 is denoted as A)”. Binding in test [3] (setting [6]) was characterised by a dissociation constant (Kd) of 0.31 nM.
For the compound `CCO[C@@H]1C[C@H]2C(=O)NC3(CC(C)(C)C3)C(=O)N(C)[C@@H](C3CCCC3)C(=O)N(C)[C@H](C(=O)N(C)C)CC(=O)N(C)[C@@H]([C@@H](C)OC)C(=O)N[C@@H]([C@@H](C)CC)C(=O)N(C)CC(=O)N(C)[C@H]3C/C=C\CCN(C3=O)[C@@H](Cc3ccc(C)cc3)C(=O)N(C)CC(=O)N[C@@H](CCc3cc(F)c(C(F)(F)F)c(F)c3)C(=O)N2C1` [PP3208], the “NRAS /KRAS” value in test [1] (setting [9]) is “A (a compound having 10 or more and less than 20 is denoted as A)”. Further, the IC50 in test [2] came out at 2.8 nM. Also, the “HRAS /KRAS” value on HRAS wild-type protein (setting [10]) was “A (a compound having 10 or more and less than 20 is denoted as A)”. This compound also had a Kd in test [3] (1:1 binding model) of 0.076 nM.
In the case of `CCO[C@@H]1C[C@H]2C(=O)NC3(CCC3)C(=O)N(C)[C@@H](C3CCCC3)C(=O)N(C)[C@H](C(=O)N(C)CC)CC(=O)N(C)[C@@H](CC(F)(F)F)C(=O)N[C@@H]([C@@H](C)CC)C(=O)N(C)CC(=O)N(C)[C@H]3C/C=C\CCN(C3=O)[C@@H](Cc3ccc(C(F)(F)F)cc3)C(=O)N(C)CC(=O)N[C@@H](CCc3cc(F)c(C(F)(F)F)c(F)c3)C(=O)N2C1` [PP1701], the “NRAS /KRAS” value in test [1] (setting [7]) is “A (a compound having 10 or more and less than 20 is denoted as A)”. This compound also registered an IC50 in test [2] of 3.7 nM. For the same compound, the “HRAS /KRAS” value at HRAS wild-type protein (setting [8]) was “A (a compound having 10 or more and less than 20 is denoted as A)”. Further, the Kd in test [3] (setting [6]) is 0.08 nM.
Consider `CCO[C@@H]1C[C@H]2C(=O)NC3(CC(C)(C)C3)C(=O)N(C)[C@@H](C3CCCC3)C(=O)N(C)[C@H](C(=O)N(C)CC)CC(=O)N(C)[C@@H](CC(C)C)C(=O)N[C@@H]([C@@H](C)CC)C(=O)N(C)CC(=O)N(C)[C@H]3C/C=C\CCN(C3=O)[C@@H](Cc3ccc(C(F)F)cc3)C(=O)N(C)CC(=O)N[C@@H](CCc3cc(C)c(C4CC4)c(C)c3)C(=O)N2C1` [PP3148], for which the “NRAS /KRAS” value in test [1] (setting [9]) is “A (a compound having 10 or more and less than 20 is denoted as A)”. This compound also had an IC50 in test [2] of 75.9 nM. Besides, the “HRAS /KRAS” value at HRAS wild-type protein (setting [10]) is “A (a compound having 10 or more and less than 20 is denoted as A)”. This compound yielded a dissociation constant Kd in test [3] (1:1 binding model) of 2.4 nM.
On to `CCO[C@@H]1C[C@H]2C(=O)NC3(CCC3)C(=O)N(C)[C@@H](C3CCCC3)C(=O)N(C)[C@H](C(=O)N3CCOCC3)CC(=O)N(C)[C@@H](CC(C)C)C(=O)N[C@@H]([C@@H](C)CC)C(=O)N(C)CC(=O)N(C)[C@H]3CCCCCN(C3=O)[C@@H](Cc3ccc(F)c(F)c3)C(=O)N(C)CC(=O)N[C@@H](CCc3cc(F)c(C(F)(F)F)c(F)c3)C(=O)N2C1` [PP0917], for which the “NRAS /KRAS” value in test [1] (setting [9]) is “B (a compound having 3 or more and less than 10 is denoted as B)”. The compound also showed an IC50 in test [2] of 25.2 nM. Besides, at HRAS wild-type protein (setting [10]), the “HRAS /KRAS” value is “B (a compound having 3 or more and less than 10 is denoted as B)”. The same compound yielded a Kd in test [3] (Single Cycle Kinetics) of 0.16 nM.
Regarding `CC[C@H](C)[C@@H]1NC(=O)[C@H](Cc2ccccc2)N(C)C(=O)C[C@@H](C(=O)N2CCOCC2)N(C)C(=O)[C@H](C2CCCC2)N(C)C(=O)C2(CCCC2)NC(=O)[C@@H]2CCCN2C(=O)[C@H](CCc2ccc(C(F)(F)F)c(Cl)c2)NC(=O)CN(C)C(=O)[C@H](Cc2ccc(F)cc2)N2CCCCC[C@@H](C2=O)N(C)C(=O)CN(C)C1=O` [PP0961], in test [1] (setting [9]), the “NRAS /KRAS” value was “B (a compound having 3 or more and less than 10 is denoted as B)”. The compound also registered an IC50 in test [2] of 53.6 nM. The “HRAS /KRAS” value at HRAS wild-type protein (setting [10]) was “B (a compound having 3 or more and less than 10 is denoted as B)”. In test [3] (Single Cycle Kinetics), this compound came in with a Kd of 0.62 nM.
